Assay results reported in patent publication US20240033234A1, “THERAPEUTIC COMPOUNDS, FORMULATIONS, AND USE THEREOF” (Tvardi Therapeutics, Inc., priority 2022, published 2024).
“And” between values parts separate entries of the source, which are not always exact repeats. Identical values can stand only once.

Assay: Accelerated and long term stability study of TTI-101 (Batch A, Batch B): HPLC assay, purity, impurities and water content after storage at 5° C., 25° C./60% RH, 30° C./65% RH or 40° C./75% RH
Type: physicochemical
Details: for Impurities RRT 1.06: RRT of Compound 4; for Impurities RRT 0.99: RRT of compound of formula (IV)
Procedure: Exemplary HPLC conditions: diluent was 0.1% trifluoroacetic acid (TFA) in acetonitrile, Mobile Phase A was 0.05% TFA in water, and Mobile Phase B was 0.05% TFA in acetonitrile, column (Agilent, Eclipse XDB-C18, 3.0×100 mm, particle size 1.8 μm), flow (0.425 mL/min), and detector (280 nm diode array).
Batch A was prepared analogously using Method 3 as described in Example 1. Batch B was prepared according to Method 5 as described in Example 1.
Samples of TTI-101 were stored at 5° C., 25° C./60% RH, 30° C./65% RH, or 40° C./75% RH. TTI-101 was stored in an LDPE bag enclosed with a Nylon cable tie and then transferred to another LDPE bag and enclosed with a Nylon cable tie. The enclosure was put into an HDPE bottle and closed with a polyethylene-lined polypropylene cap. The samples were stored under the above-identified conditions.
The samples were analyzed using HPLC with the exemplary conditions identified above. Relative retention time (RRT) for Compound 5 was about 0.83, Compound 4 was about 1.05-1.06, Compound 6 was about 1.15-1.17, and compound of formula (IV) was about 0.99.
• NA not applicable • NQ ≥0.02% and <0.05% • Avg average • Cmpd compound • — no peak • M month • RRT relative retention time

[1] = 25° C./60% RH, 6 M, P1/P2, listed as Batch A
[2] = 25° C./60% RH, 9 M, P1/P2, listed as Batch A
[3] = 25° C./60% RH, 12 M, P1/P2, listed as Batch A
[4] = 40° C./75% RH, 0 M, P1/P2, listed as Batch A
[5] = 40° C./75% RH, 2 M, P1/P2, listed as Batch A
[6] = 40° C./75% RH, 6 M, P1/P2, listed as Batch A

Purity (%) (25° C./60% RH, 3 M, P1/P2): 99.7%
Water Content (%) (25° C./60% RH, 3 M, P1/P2): <0.04%
Assay (%) (25° C./60% RH, 3 M, P1/P2, listed as Batch A): 99.0% and 100.0%
Assay (%) (25° C./60% RH, 6 M, Avg): 98.2%
Impurities RRT 1.15 (Cmpd 6) (25° C./60% RH, 6 M, Avg): 0.11 area %
Impurities Total (25° C./60% RH, 6 M, Avg): 0.1 area %
Purity (%) (25° C./60% RH, 6 M, Avg): 99.9%
Water Content (%) (25° C./60% RH, 6 M, Avg): <0.04%
Impurities Total (25° C./60% RH, 6 M, P1/P2): 0.1 area %
Purity (%) (25° C./60% RH, 6 M, P1/P2): 99.9%
Water Content (%) (25° C./60% RH, 6 M, P1/P2): <0.04%
Assay (%) [1]: 97.0% and 99.5%
Impurities RRT 1.15 (Cmpd 6) [1]: 0.11 area % and 0.12 area %
Assay (%) (25° C./60% RH, 9 M, Avg): 98.4%
Impurities RRT 1.16 (Cmpd 6) (25° C./60% RH, 9 M, Avg): 0.10 area %
Impurities Total (25° C./60% RH, 9 M, Avg): 0.1 area %
Purity (%) (25° C./60% RH, 9 M, Avg): 99.9%
Water Content (%) (25° C./60% RH, 9 M, Avg): <0.04%
Impurities Total (25° C./60% RH, 9 M, P1/P2): 0.1 area %
Purity (%) (25° C./60% RH, 9 M, P1/P2): 99.9%
Water Content (%) (25° C./60% RH, 9 M, P1/P2): <0.04%
Assay (%) [2]: 99.7% and 97.0%
Impurities RRT 1.16 (Cmpd 6) [2]: 0.11 area % and 0.10 area %
Assay (%) (25° C./60% RH, 12 M, Avg): 98.5%
Impurities RRT 1.06 (Cmpd 4) (25° C./60% RH, 12 M, Avg): NQ (≥0.02% and <0.05%)
Impurities RRT 1.16 (Cmpd 6) (25° C./60% RH, 12 M, Avg): 0.39 area %
Impurities RRT 1.52 (25° C./60% RH, 12 M, Avg): NQ (≥0.02% and <0.05%)
Impurities Total (25° C./60% RH, 12 M, Avg): 0.4 area %
Purity (%) (25° C./60% RH, 12 M, Avg): 99.6%
Water Content (%) (25° C./60% RH, 12 M, Avg): 0.04%
Impurities RRT 1.06 (Cmpd 4) (25° C./60% RH, 12 M, P1/P2): NQ (≥0.02% and <0.05%)
Impurities RRT 1.16 (Cmpd 6) (25° C./60% RH, 12 M, P1/P2): 0.39 area %
Impurities Total (25° C./60% RH, 12 M, P1/P2): 0.4 area %
Purity (%) (25° C./60% RH, 12 M, P1/P2): 99.6%
Assay (%) [3]: 98.3% and 98.6%
Water Content (%) [3]: <0.04% and 0.04%
Assay (%) (25° C./60% RH, 18 M, Avg): 98.2%
Impurities RRT 1.15 (Cmpd 6) (25° C./60% RH, 18 M, Avg): 0.10 area %
Impurities Total (25° C./60% RH, 18 M, Avg): 0.1 area %
Purity (%) (25° C./60% RH, 18 M, Avg): 99.9%
Water Content (%) (25° C./60% RH, 18 M, Avg): <0.04%
Impurities RRT 1.15 (Cmpd 6) (25° C./60% RH, 18 M, P1/P2): 0.10 area %
Impurities Total (25° C./60% RH, 18 M, P1/P2): 0.1 area %
Purity (%) (25° C./60% RH, 18 M, P1/P2): 99.9%
Water Content (%) (25° C./60% RH, 18 M, P1/P2): <0.04%
Impurities RRT 1.06 (25° C./60% RH, 18 M, P1/P2): NQ (≥0.02% and <0.05%)
Assay (%) (25° C./60% RH, 18 M, P1/P2, listed as Batch A): 98.3% and 98.2%
Assay (%) (25° C./60% RH, 24 M, Avg): 99.3%
Impurities RRT 1.16 (Cmpd 6) (25° C./60% RH, 24 M, Avg): 0.12 area %
Impurities Total (25° C./60% RH, 24 M, Avg): 0.1 area %
Purity (%) (25° C./60% RH, 24 M, Avg): 99.9%
Water Content (%) (25° C./60% RH, 24 M, Avg): <0.04%
Impurities RRT 1.16 (Cmpd 6) (25° C./60% RH, 24 M, P1/P2): 0.12 area %
Impurities Total (25° C./60% RH, 24 M, P1/P2): 0.1 area %
Purity (%) (25° C./60% RH, 24 M, P1/P2): 99.9%
Water Content (%) (25° C./60% RH, 24 M, P1/P2): <0.04%
Impurities RRT 1.06 (25° C./60% RH, 24 M, P1/P2): NQ (≥0.02% and <0.05%)
Assay (%) (25° C./60% RH, 24 M, P1/P2, listed as Batch A): 99.1% and 99.6%
Assay (%) (40° C./75% RH, 0 M, Avg): 99.8%
Impurities RRT 1.06 (Cmpd 4) (40° C./75% RH, 0 M, Avg): NQ (≥0.02% and <0.05%)
Impurities RRT 1.17 (Cmpd 6) (40° C./75% RH, 0 M, Avg): 0.13 area %
Impurities RRT 1.32 (40° C./75% RH, 0 M, Avg): NQ (≥0.02% and <0.05%)
Impurities Total (40° C./75% RH, 0 M, Avg): 0.1 area %
Purity (%) (40° C./75% RH, 0 M, Avg): 99.8%
Water Content (%) (40° C./75% RH, 0 M, Avg): <0.04%
Impurities RRT 0.99 (40° C./75% RH, 0 M, Avg): NQ (≥0.02% and <0.05%)
Impurities RRT 1.32 (40° C./75% RH, 0 M, P1/P2): NQ (≥0.02% and <0.05%)
Impurities Total (40° C./75% RH, 0 M, P1/P2): 0.1 area %
Purity (%) (40° C./75% RH, 0 M, P1/P2): 99.8%
Water Content (%) (40° C./75% RH, 0 M, P1/P2): <0.04%
Assay (%) [4]: 99.9% and 99.7%
Impurities RRT 1.17 (Cmpd 6) [4]: 0.13 area % and 0.12 area %
Assay (%) (40° C./75% RH, 2 M, Avg): 99.9%
Impurities RRT 1.16 (Cmpd 6) (40° C./75% RH, 2 M, Avg): 0.07 area %
Impurities RRT 1.29 (40° C./75% RH, 2 M, Avg): NQ (≥0.02% and <0.05%)
Impurities RRT 1.38 (40° C./75% RH, 2 M, Avg): NQ (≥0.02% and <0.05%)
Impurities Total (40° C./75% RH, 2 M, Avg): 0.1 area %
Purity (%) (40° C./75% RH, 2 M, Avg): 99.9%
Water Content (%) (40° C./75% RH, 2 M, Avg): <0.04%
Impurities RRT 0.99 (40° C./75% RH, 2 M, Avg): NQ (≥0.02% and <0.05%)
Impurities RRT 1.38 (40° C./75% RH, 2 M, P1/P2): NQ (≥0.02% and <0.05%)
Impurities Total (40° C./75% RH, 2 M, P1/P2): 0.1 area %
Purity (%) (40° C./75% RH, 2 M, P1/P2): 99.9%
Water Content (%) (40° C./75% RH, 2 M, P1/P2): <0.04%
Impurities RRT 0.99 (40° C./75% RH, 2 M, P1/P2): NQ (≥0.02% and <0.05%)
Assay (%) [5]: 100.0% and 99.8%
Impurities RRT 1.16 (Cmpd 6) [5]: 0.08 area % and 0.06 area %
Assay (%) (40° C./75% RH, 3 M, Avg): 99.0%
Impurities RRT 0.36 (40° C./75% RH, 3 M, Avg): NQ (≥0.02% and <0.05%)
Impurities RRT 1.06 (Cmpd 4) (40° C./75% RH, 3 M, Avg): 0.07 area %
Impurities RRT 1.16 (Cmpd 6) (40° C./75% RH, 3 M, Avg): 0.21 area %
Impurities Total (40° C./75% RH, 3 M, Avg): 0.3 area %
Purity (%) (40° C./75% RH, 3 M, Avg): 99.7%
Water Content (%) (40° C./75% RH, 3 M, Avg): <0.04%
Impurities RRT 1.06 (Cmpd 4) (40° C./75% RH, 3 M, P1/P2): 0.07 area %
Impurities RRT 1.16 (Cmpd 6) (40° C./75% RH, 3 M, P1/P2): 0.21 area %
Impurities Total (40° C./75% RH, 3 M, P1/P2): 0.3 area %
Purity (%) (40° C./75% RH, 3 M, P1/P2): 99.7%
Water Content (%) (40° C./75% RH, 3 M, P1/P2): <0.04%
Assay (%) (40° C./75% RH, 3 M, P1/P2, listed as Batch A): 100.8% and 97.2%
Impurities RRT 1.15 (Cmpd 6) (40° C./75% RH, 6 M, Avg): 0.13 area %
Impurities Total (40° C./75% RH, 6 M, Avg): 0.1 area %
Purity (%) (40° C./75% RH, 6 M, Avg): 99.9%
Water Content (%) (40° C./75% RH, 6 M, Avg): <0.04%
Impurities Total (40° C./75% RH, 6 M, P1/P2): 0.1 area %
Purity (%) (40° C./75% RH, 6 M, P1/P2): 99.9%
Water Content (%) (40° C./75% RH, 6 M, P1/P2): <0.04%
Assay (%) [6]: 98.5% and 95.9%
Impurities RRT 1.15 (Cmpd 6) [6]: 0.13 area % and 0.12 area %
Assay (%) (40° C./75% RH, 8 M, Avg): 100.3%
Impurities RRT 1.16 (Cmpd 6) (40° C./75% RH, 8 M, Avg): 0.08 area %
Impurities Total (40° C./75% RH, 8 M, Avg): 0.1 area %
Purity (%) (40° C./75% RH, 8 M, Avg): 99.9%
Water Content (%) (40° C./75% RH, 8 M, Avg): 0.04%
Impurities Total (40° C./75% RH, 8 M, P1-P6): 0.1 area %
Purity (%) (40° C./75% RH, 8 M, P1-P6): 99.9%
Impurities Total (Storage 5° C., 0 M, Avg): 0.1 area %
Impurity RRT 0.61 (Storage 5° C., 0 M, Avg): 0.05 area %
Impurity RRT 0.86 (Storage 5° C., 0 M, Avg): NQ (≥0.02% and <0.05%)
Impurity RRT 0.88 (Storage 5° C., 0 M, Avg): NQ (≥0.02% and <0.05%)
Impurity RRT 0.99 (Storage 5° C., 0 M, Avg): NQ (≥0.02% and <0.05%)
Impurity RRT 1.16 (Cmp 6) (Storage 5° C., 0 M, Avg): 0.07 area %
Purity (Storage 5° C., 0 M, Avg): 99.8%
Compound: COc1ccc(S(=O)(=O)Nc2cc(-c3c(O)ccc4ccccc34)c(O)c3ccccc23)cc1 [TTI-101]
Assay (%) (40° C./75% RH, 8 M, P1-P6, listed as Batch A): 100.0% and 99.8% and 100.3% and 100.6% and 99.9% and 100.8%
